Measured values taken from ChEMBL document CHEMBL1201862, “PubChem BioAssay data set” (2004).
Active and inactive are the calls of the source.

Experiments:
BJ [1] = experiment: cells; type: functional, cell-based; conditions: Homo sapiens
cells [2] = type: functional, cell-based
Beta-galactosidase [3] = target: T1, Beta-galactosidase (Escherichia coli, UniProt Q8VNN2); experiment: PubChem AID 485352; type: functional
cells [4] = type: functional, cell-based; remark: listed apart in the source
Streptococcus = experiment: Group A Streptococcus viability loss, dose response, counter-screen for streptokinase expression inhibitor project, luminescence, BacTiterGlo (AID 1915); type: functional, organism-based;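 further: potency for reduction of bacterial viability or growth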
BJ [5] = experiment: cytotoxicity toward BJ-TERT fibroblasts, dose response, cell-based, RAS-independent, luminescence (AID 1933); type: functional; conditions: Homo sapiens
[6] = Vero E6 cell cytotoxicity, dose response, cytotoxicity control for non-replicating M. tuberculosis project, secondary assay (AID 492998); type: functional, VeroE6; conditions: Vero C1008
[7] = target: T2, Type-1 angiotensin II receptor (Homo sapiens, UniProt P30556); experiment: AT1 receptor antagonists, dose response, selectivity assay for APJ receptor antagonist project, cell-based, uHTS hits (AID 463214); type: functional;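 further: antagonist potency against angiotensin II stimulated AT1 response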
T2 sequence (P30556 whole entry): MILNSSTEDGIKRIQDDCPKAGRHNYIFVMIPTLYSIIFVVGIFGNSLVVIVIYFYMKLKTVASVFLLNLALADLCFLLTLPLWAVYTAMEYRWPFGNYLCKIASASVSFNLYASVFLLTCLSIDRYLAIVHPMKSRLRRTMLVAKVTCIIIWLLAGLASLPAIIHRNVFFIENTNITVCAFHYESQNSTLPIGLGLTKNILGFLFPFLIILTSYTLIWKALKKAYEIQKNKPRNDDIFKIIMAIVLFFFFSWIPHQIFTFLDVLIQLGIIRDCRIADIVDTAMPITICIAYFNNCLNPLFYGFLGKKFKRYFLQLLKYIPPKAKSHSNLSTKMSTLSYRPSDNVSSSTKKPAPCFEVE

[8] = target: T3, Kappa-type opioid receptor (Homo sapiens, UniProt P41145); type: functional
T3 sequence (P41145 whole entry): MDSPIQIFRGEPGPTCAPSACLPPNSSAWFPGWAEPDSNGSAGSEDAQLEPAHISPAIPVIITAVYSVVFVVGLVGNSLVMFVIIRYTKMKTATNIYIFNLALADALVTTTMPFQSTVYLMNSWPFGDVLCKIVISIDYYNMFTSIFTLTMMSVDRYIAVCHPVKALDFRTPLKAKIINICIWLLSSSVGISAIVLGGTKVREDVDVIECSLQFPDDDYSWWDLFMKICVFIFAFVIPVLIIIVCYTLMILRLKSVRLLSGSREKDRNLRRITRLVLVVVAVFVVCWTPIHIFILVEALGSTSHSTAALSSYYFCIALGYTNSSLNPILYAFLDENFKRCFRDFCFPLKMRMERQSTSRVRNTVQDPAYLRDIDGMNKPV

[9] = Luminescence-based dose response cell-based high throughput screening assay for cytotoxic compounds using the IEC-6 intestinal epithelial cell line. [Related pubchem assays: 1858 (Summary AID.), 1825 (Counterscreen.), 1907 (Confirmation screen.)]; type: functional
[10] = AlphaScreen signal interference compounds, dose response, artefact control for ARNT-TACC3 interaction inhibitor project, biochemical, luminescence, cherry-pick (AID 651705); type: functional;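 further: AlphaScreen bead proximity signal that flags compounds interfering with the detection technology; potency reflects signal decrease which marks the compound as an assay artifact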
[11] = cytotoxicity toward DRD oncogenic fibroblasts, dose response, cell-based, non-viral oncogenic, luminescence (AID 1934); type: functional; conditions: Homo sapiens
Vero = experiment: cells; type: functional; conditions: Chlorocebus sabaeus
[12] = target: T4, Heat shock factor protein 1 (Mus musculus, UniProt P38532); experiment: HSF1 potentiators in luciferase reporter cells, confirmation, cell-based, NIH3T3, luminescence, dose retest (AID 435004); type: functional;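 further: stress induced by proteasome inhibitor MG132 added 30 min after compound; luciferase reporter driven by HSF1 response element in NIH3T3 cells; actives raise luminescence as potentiators of the MG132 stress response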
T4 sequence (P38532 whole entry): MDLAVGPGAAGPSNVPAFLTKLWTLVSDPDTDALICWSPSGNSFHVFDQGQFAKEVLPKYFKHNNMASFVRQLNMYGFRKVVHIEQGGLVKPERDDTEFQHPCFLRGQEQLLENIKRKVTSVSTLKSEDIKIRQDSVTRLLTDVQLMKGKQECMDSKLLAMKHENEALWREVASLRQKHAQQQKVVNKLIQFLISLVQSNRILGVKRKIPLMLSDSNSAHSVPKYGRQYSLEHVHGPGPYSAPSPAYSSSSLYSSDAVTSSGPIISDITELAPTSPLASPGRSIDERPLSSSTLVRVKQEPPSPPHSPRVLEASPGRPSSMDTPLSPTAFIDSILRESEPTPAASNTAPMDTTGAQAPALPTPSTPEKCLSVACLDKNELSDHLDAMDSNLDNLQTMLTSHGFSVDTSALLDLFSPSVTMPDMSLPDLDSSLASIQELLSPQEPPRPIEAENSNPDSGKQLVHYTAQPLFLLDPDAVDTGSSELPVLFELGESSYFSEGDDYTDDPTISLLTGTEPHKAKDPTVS

INS1 = experiment: beta cell apoptosis inhibitors, cytokine rescue, dose response, luminescence, retest (AID 449756); type: functional, cell-based; conditions: Rattus norvegicus;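 further: cell death triggered by IL-1 beta plus TNF-alpha plus IFN-gamma mixture; protective hits raise ATP signal compared with cytokine alone wells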
Streptokinase A = target: T5, Streptokinase A (Streptococcus pyogenes serotype M1, UniProt P10520); experiment: S. pyogenes streptokinase expression inhibitors, potency, dose response, plasminogen activation absorbance, OD405 (AID 1914); type: functional, Streptococcus pyogenes M1 GAS;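 further: secreted streptokinase activity via plasminogen activation per viability signal from cell pellet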
T5 sequence (P10520 whole entry): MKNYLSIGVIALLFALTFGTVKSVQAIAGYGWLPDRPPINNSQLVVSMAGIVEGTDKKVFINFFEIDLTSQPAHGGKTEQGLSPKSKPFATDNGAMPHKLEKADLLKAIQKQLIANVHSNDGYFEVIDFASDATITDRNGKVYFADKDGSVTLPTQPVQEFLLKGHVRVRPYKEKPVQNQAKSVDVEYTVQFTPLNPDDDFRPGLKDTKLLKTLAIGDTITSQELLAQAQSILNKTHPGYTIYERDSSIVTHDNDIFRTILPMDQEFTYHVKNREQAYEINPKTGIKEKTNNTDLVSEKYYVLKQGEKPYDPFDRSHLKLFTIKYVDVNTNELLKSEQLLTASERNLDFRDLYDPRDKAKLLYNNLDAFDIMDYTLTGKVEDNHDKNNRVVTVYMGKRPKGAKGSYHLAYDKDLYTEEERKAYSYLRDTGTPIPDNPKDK

[13] = cytotoxicity in HEK-293T cells, dose response, cytotoxicity control for TCR NF-kB inhibitor project, luminescence, T-cell screen hits (AID 489026); type: functional, cell-based;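 further: cells exposed to compound about 14 hours before the viability readout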
BJ [14] = experiment: cytotoxicity toward Ras-transformed BJeLR fibroblasts, dose response, cell-based, alamar blue fluorescence, cherrypicked samples (AID 2631); type: functional; conditions: Homo sapiens;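 further: confirmatory dose-response assay in RAS-dependent BJ fibroblasts engineered with TERT, LT and ST, with cytotoxicity read by fluorescence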
[15] = HepG2 cell cytotoxicity, dose response, cytotoxicity control for non-replicating M. tuberculosis project (AID 489018); type: functional; conditions: Mycobacterium tuberculosis
[16] = system: Streptococcus sp. 'group A'; experiment: growth inhibition of control SK(-) GAS strain, dose response, counter-screen for streptokinase expression inhibitor project, luminescence, kanamycin, BacTiterGlo, confirmation (AID 1900); type: functional, organism-based
[17] = THP-1 cell cytotoxicity, dose response, cytotoxicity control for non-replicating M. tuberculosis project (AID 489025); type: functional
BJ [18] = experiment: cytotoxicity toward BJ-TERT-LT-ST fibroblasts, dose response, cell-based, RAS-independent, luminescence (AID 1935); type: functional; conditions: Homo sapiens;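 further: BJ fibroblasts immortalized with TERT plus LT and ST oncogenes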
Beta-galactosidase [19] = target: T1, Beta-galactosidase; type: functional
cells [20] = type: functional
[21] = target: T3, Kappa-type opioid receptor; type: functional; remark: listed apart in the source
[22] = M. tuberculosis H37Rv growth inhibitors, H37Rv strain (AID 1626); type: functional
[23] = cytotoxicity in HEK-293T cells, dose response, cytotoxicity control for BCR NF-kB inhibitor project, luminescence, B-cell screen hits (AID 489021); type: functional, cell-based;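 further: HEK-293T cells carrying an NF-kB luciferase reporter; cells exposed to compound for about 14 hours before viability readout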
[24] = target: T6, COUP transcription factor 2 (Homo sapiens, UniProt P24468); experiment: Luminescence-based cell-based high throughput dose response assay to identify inhibitors of COUP-TFII (NR2F2).; type: functional;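 further: HEK293 cells transiently cotransfected with COUP-TFII expression vector and reporter; luciferase reporter luminescence driven by COUP-TFII from the pX2-168 reporter plasmid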
T6 sequence (P24468 whole entry): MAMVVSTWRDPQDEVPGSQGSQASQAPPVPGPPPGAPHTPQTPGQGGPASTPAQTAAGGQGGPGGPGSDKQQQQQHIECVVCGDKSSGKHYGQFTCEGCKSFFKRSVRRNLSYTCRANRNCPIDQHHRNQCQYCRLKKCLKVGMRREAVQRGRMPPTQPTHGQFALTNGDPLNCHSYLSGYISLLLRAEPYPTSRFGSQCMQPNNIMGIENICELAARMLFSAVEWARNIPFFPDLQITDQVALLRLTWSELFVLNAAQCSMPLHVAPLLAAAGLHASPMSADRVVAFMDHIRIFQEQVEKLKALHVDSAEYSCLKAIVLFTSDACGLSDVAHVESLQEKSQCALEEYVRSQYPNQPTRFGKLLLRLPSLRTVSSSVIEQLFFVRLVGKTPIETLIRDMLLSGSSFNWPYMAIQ

Galanin receptor type 2 = Galanin receptor type 2 (Homo sapiens, UniProt O43603); experiment: Dose Response cell-based high-throughput screening assay to identify antagonists of galanin receptor 2 (GALR2). [Related pubchem assays: 828, 866 ]; type: functional
Sequence of Galanin receptor type 2 (O43603 whole entry, the tested form may be a part): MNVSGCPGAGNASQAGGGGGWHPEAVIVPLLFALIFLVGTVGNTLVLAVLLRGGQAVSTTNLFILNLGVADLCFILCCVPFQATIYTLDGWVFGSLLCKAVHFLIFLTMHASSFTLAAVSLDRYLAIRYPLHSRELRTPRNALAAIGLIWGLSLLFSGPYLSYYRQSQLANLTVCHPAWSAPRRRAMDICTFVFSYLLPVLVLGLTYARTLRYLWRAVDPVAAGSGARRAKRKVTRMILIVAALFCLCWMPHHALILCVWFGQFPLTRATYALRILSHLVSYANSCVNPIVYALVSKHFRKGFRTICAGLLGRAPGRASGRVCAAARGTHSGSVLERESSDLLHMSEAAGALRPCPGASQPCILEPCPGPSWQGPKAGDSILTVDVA

[25] = ZM109 Env clade C HIV-1 fusion inhibitors, dose response, HeLa effector, CEM target cells, luciferase, cherry-pick (AID 652058); type: functional, cell-based
[26] = off-target signal loss in HeLa-CEM21 co-culture – HeLa F-luc CTL cells, cherry-picked, counter-screen for HIV-1 Env fusion inhibitor project, dose response (AID 652040); type: functional, cell-based;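 further: potency for signal decrease marking cytotoxic or nonspecific inhibition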
[27] = cytotoxicity toward NIH3T3 fibroblasts, dose response, counter-screen, cell-based, ATP luminescence, mouse fibroblasts (AID 2010); type: functional;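 further: cells exposed to compound for about 90 hours before reading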
[28] = inhibitors of clade B AD8 Env fusion, dose response, cell-based, cherry-pick (AID 652062); type: functional;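 further: luciferase signal from cell-cell fusion driven by HIV-1 clade B AD8 Env; potency is for inhibitors of fusion seen as a drop in luminescence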
[29] = inhibitors of intracellular T. cruzi replication, confirmation, NIH3T3 host cells, beta-gal luminescence (AID 2044); type: functional, cell-based;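 further: intracellular parasites grown in NIH/3T3 mouse fibroblasts as host cells; luminescent beta-galactosidase reporter signal from transgenic T. cruzi replicating inside host cells; inhibitors lower the luminescence signal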
[30] = CEM21 lymphoblast cell cytotoxicity, dose response, cytotoxicity control for viral fusion inhibitor project, CellTiter-Glo luminescence, cherry-picked (AID 652042); type: functional, cell-based;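 further: potency for signal decrease meaning cytotoxicity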
[31] = inhibitors of HIV Env-driven cell fusion, dose response, cherry-pick (AID 652057); type: functional, cell-based
[32] = Luminescence Cell-Based Dose Confirmation HTS to Identify Inhibitors of Polyadenylation.; type: functional

T1 sequence (Q8VNN2 whole entry): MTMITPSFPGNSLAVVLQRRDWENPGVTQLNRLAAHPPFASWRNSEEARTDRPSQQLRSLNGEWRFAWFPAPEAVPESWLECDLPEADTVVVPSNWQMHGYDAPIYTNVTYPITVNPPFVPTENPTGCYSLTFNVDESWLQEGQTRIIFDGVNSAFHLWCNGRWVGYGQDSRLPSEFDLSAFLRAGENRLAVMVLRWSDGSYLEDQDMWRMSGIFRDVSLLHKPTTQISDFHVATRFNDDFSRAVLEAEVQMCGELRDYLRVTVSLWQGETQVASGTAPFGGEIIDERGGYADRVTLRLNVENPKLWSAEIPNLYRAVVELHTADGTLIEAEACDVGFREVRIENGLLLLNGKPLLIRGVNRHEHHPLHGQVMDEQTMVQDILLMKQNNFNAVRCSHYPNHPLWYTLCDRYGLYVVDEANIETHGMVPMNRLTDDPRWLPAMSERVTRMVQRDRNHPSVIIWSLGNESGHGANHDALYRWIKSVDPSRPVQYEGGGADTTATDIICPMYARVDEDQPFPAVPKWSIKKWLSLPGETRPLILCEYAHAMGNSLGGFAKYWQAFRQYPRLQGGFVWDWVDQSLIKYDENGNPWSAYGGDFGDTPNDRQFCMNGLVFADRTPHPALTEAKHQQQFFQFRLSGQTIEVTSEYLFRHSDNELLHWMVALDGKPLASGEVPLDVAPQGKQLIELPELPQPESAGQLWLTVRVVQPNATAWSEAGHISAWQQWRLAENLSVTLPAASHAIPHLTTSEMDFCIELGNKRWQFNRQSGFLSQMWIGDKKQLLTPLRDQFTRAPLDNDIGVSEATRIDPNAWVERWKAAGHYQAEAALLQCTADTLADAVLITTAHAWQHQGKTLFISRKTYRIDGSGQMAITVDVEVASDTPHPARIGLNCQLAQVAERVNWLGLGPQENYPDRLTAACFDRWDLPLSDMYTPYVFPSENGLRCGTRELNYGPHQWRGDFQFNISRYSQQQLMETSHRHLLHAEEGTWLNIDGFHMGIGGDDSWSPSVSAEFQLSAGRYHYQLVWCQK

Structure (SMILES): O=C(N/N=C(\c1ccccc1)c1cccnc1)c1cccc(F)c1
- EC50 (BJ [1]): 5.95 µM (active)
- EC50 (cells [2]): 28.7 µM (active)
- EC50 (Beta-galactosidase [3]): > 40 µM (inactive)
- EC50 (cells [4]): > 350 µM (not active)
- EC50 (Streptococcus): 11 µM (active)
- EC50 (BJ [5]): 12.4 µM (active)
- CC50 [6]: 1.18 µM (active)
- IC50 [7]: 10.8 µM (active)
- IC50 [8]: > 32 µM
- IC50 [9]: 0.747 µM (active)
- AC50 [10]: 120 µM (active)
- EC50 [11]: 5.35 µM (inconclusive)
- CC50 (Vero): 1.7 µM (active)
- EC50 [12]: 21.5 µM (active)
- AC50 (INS1): 0.519 µM (active)
- EC50 (Streptokinase A): > 150 µM (not active)
- IC50 [13]: > 80 µM (inactive)
- EC50 (BJ [14]): 0.939 µM (active)
- CC50 [15]: 9.37 µM (active)
- EC50 [16]: 5.5 µM (active)
- CC50 [17]: 0.726 µM (active)
- EC50 (BJ [18]): 4.43 µM (active)
- EC50 (Beta-galactosidase [19]): > 31.5 µM (inactive)
- IC50 (cells [20]): 1.73 µM (active)
- IC50 [21]: 13.1 µM (active)

Structure (SMILES): COc1ccc(N2CCN(c3nc(-c4cccs4)nc4ccccc34)CC2)cc1
- IC50 [22]: > 100 µM (active)

Structure (SMILES): Cc1cc(C)c(S(=O)(=O)NCc2ccncc2)c(C)c1
- IC50 [23]: > 80 µM (inactive)
- IC50 [24]: 4.96 µM (active)
- IC50 (Galanin receptor type 2): > 42 µM (not active)

Structure (SMILES): CC(C)(C)c1ccc(C2CC2C(=O)N/N=C\c2ccc[nH]2)cc1 (stereo not given)
- AC50 [25]: 1.5 µM (active)
- AC50 [26]: 2.75 µM (active)
- EC50 [27]: 3.25 µM (active)
- IC50 [9]: 1.44 µM (active)
- IC50 [24]: 2.66 µM (active)
- AC50 (INS1): 0.854 µM (active)
- AC50 [28]: 1.97 µM (active)
- EC50 [29]: 0.389 µM (active)
- AC50 [30]: 4.53 µM (active)
- AC50 [31]: 3.52 µM (active)

Structure (SMILES): Cc1nc2ccc(NC(=O)Cc3ccc4c(c3)OCCO4)cc2s1
- EC50 [32]: > 120 µM (not active)
